From US10342806B2, “Hormone treatment for age-related hearing loss-presbycusis” (priority 2014, dated 2019)
Peptide text beside a SMILES is read from it. * marks the point of attachment. Cbz = O=C(OCc1ccccc1)*

Key:
Assay type in all cases: cell-based, human
[1] = test system: LC3-I, -II, and LAMP-2; experiment: Lysosome pathway markers in HT-29 cells, Western blot; conditions: ALD 1 μM, MG-132 20 μM, CQ 50 μM, 9 h
Experimental: FIG. 23(A) is a blot and showing ubiquitination, but not the lysosome pathway, is involved in the regulation of NKCC1 by ALD. To exclude the possibility that depletion of free ubiquitin by the prolonged MG-132 treatment triggered nonspecific inhibition of lysosome degradation of NKCC1 and investigate whether ALD is involved in a lysosome pathway, a parallel experiment with chloroquine (CQ) was performed. Here, the positive marks (+) indicate application of ALD (1 μM), MG132 (20 μM), CQ (50 μM), ALD+CQ, and MG132+CQ for 9 h. An autophagosome marker, autophagy-related gene 8 named as light chain 3 (LC3), and the lysosome-associated membrane protein 2 (LAMP-2) were used was indicators of lysosome pathway activation (phagocytic activity) under treatment with CQ.
(§1) Western blot. Cell lysates were prepared in RIPA buffer (Pierce 89901; Thermo Scientific, Waltham, Mass.) with protease inhibitor cocktail (78430; Thermo Scientific). Cell samples were homogenized in buffer, followed by centrifugation at 2,000 rpm for 10 min at 4° C. Supernatants were subjected to Western blot analysis by loading 200 μg of protein per lane, after the protein concentrations were determined by Bradford protein assay. Proteins were fractionated by SDS-PAGE gel electrophoresis and transferred to a PVDF blotting membrane (Whatman, Piscataway, N.J.). The blot was incubated with primary antibodies against β-actin and Na—K-2C1 cotransport protein (Cell Signaling, Danvers Mass.); primary antibodies for p-SGK1, SGK1, pNedd4-2, and Nedd4-2 were utilized (concentration 1:1,000). The secondary antibody was horseradish peroxidaseconjugated goat anti-rabbit IgG (1:2,000; Cell Signaling).
Ubiquitination, but not the lysosome pathway, is involved in NKCC1 induction by ALD. A parallel experiment was performed with chloroquine (CQ), a lysosome inhibitor, to exclude the possibility that prolonged MG-132 treatment depleted free ubiquitin by nonspecific inhibition of lysosome degradation of NKCC1 and to confirm whether or not ALD is involved in a lysosome pathway. […]

[2] = test system: Na,K-ATPase; experiment: Na,K-ATPase mRNA expression in HT-29 cells; conditions: 5 mM, 24 hr, HT-29, compared to vehicle treatment; preliminary data
Experimental: FIG. 37 is a blot showing the up-regulation of Na, K-ATPase with NH4Cl. L is the DNA ladder, C is the control (vehicle treatment), NH4CL is treatment with 5 mM NH4Cl for 24 hours.
Ammonium chloride (NH4Cl) as part of a proposed treatment of presbycusis is based on the fact that NH4Cl has been used with FDA approval as a diuretic; NH4Cl increases NKCC1 protein expression and activity in several studies in other physiological systems (Jayakumar et al. 2008; Ikebe et al. 2001); c) NH4Cl can also increase Na, K-ATPase activity (Masui et al. 2002; Garcon et al. 2007). For large doses, NH4Cl can induce metabolic acidosis, but in lower doses taken orally, there are no significant side effects in the short term.

[3] = test system: NKCC1; experiment: NKCC1 protein expression in HT-29 cells, Western blot
From the text: Cell culture and buffers. […] Arch Oral Biol 52: 411-416, 2007). These include, for example, studies of COMM domain-containing protein 1, which is involved in NKCC1 ubiquitination and transcriptional regulation of epithelial Na^+ channels (ENaC) located in the apical membrane of polarized epithelial cells, in particular, cells in the colon, kidney, and lung, by ALD (Cohen, et al., Induced differentiation in HT29, a human colon adenocarcinoma cell line. J Cell Sci 112: […], 1999, Epple, et al., Early aldosterone effect in distal colon by transcriptional regulation of ENaC subunits. Am J Physiol Gastrointest Liver Physiol 278: G718-G724, 2000, Smith, et al., COMMD1 interacts with the COOH terminus of NKCC1 in Calu-3 airway epithelial cells to modulate NKCC1 ubiquitination. Am J Physiol Cell Physiol 305: C133-C146, 2013). HT-29 cells were grown in DMEM media (Invitrogen, Carlsbad Calif.) with 10% FBS and antibiotics. Cells were grown in a humidified 95%/5% CO2 incubator at 37° C. Experiments were performed at 70-80% confluence.
as §1
Statistical analysis. Images from films were imported into Adobe Photoshop (v 5.0), and further processed using Adobe Photoshop CS and ImageJ (National Institutes of Health) for the densitometry analysis. Data are reported as means±SD. Statistical analyses were performed with PRISM 4.0 (GraphPad Software, San Diego Calif.). Differences were analyzed with a one- or a two-way repeated measures ANOVA as appropriate or a two-way ANOVA followed by Bonferroni post hoc analyses that were corrected for multiple comparisons. Values of P <0.05 were considered significant.

[4] = test system: NKCC1; experiment: Tl-uptake in single HT-29 cells (FluxOR) for NKCC1 activity; conditions: 24 single HT-29 cells per condition
From the text: Tl-uptake in single cells for the detection of NKCC1 activity. To measure NKCC1 activity, we used a fluorescence assay to assess cotransporter activity in single isolated HT-29 cells (Delpire & Austin, Kinase regulation of Na^+—K^+-2Cl^− cotransport in primary afferent neurons. J Physiol 588: 3365-3373, 2010, Geng, et al., The Ste20 kinases SPAK and OSR1 regulate NKCC1 function in sensory neurons. J Biol Chem 284: 14020-14028, 2009, Weaver, et al., A thallium-sensitive, fluorescence-based assay for detecting and characterizing potassium channel modulators in mammalian cells. J Biomol Screen 9: 671-677, 2004). HT-29 cells were incubated at 37° C./5% CO2 for 24 h before use. […] For the detection of fluorescence, the preincubation solution was removed, and the cells were treated with a 340.5 mosM hypertonic stimulus solution containing the following (in mM): (2.8 TISO4, 140 NaCl, 2 KCl, 2 CaCl2, 0.8 MgSO4, 5 glucose, 20 HEPES, 27 sucrose, 1 ouabain, and 2.7 probenecid) in the presence or absence of 20 μM bumetanide. […] FluxOR fluorescence (excitation/emission: 488/525 nm) was recorded after 90 s upon addition of 2.8 mM […] to the external medium. […]
Influence of ALD on NKCC1 transporter activity. […] To test this hypothesis, a more efficient and sensitive method, fluorescence Ion flux assays was adopted to measure NKCC1 transporter activity. […]

[5] = test system: SGK1 and Nedd4-2; experiment: SGK1 and Nedd4-2 phosphorylation in HT-29 cells, Western blot; conditions: 9 h
Experimental: FIG. 25 is a blot showing ALD modulation of NKCC1 via the ALD-SGK1-Nedd4-2 pathway. HT-29 cells were treated with ALD (1 μM) or ALD (1 μM)+GSK650394 (50 μM) for 9 h. Cell lysates were analyzed by Western blot as indicated. Blots are representative of 3 independent experiments. Left: controls. Middle: ALD increases the phosphorylations of SGK1 and Nedd4-2, concomitantly there is an increased induction of NKCC1 protein expression (1st row).
as §1

[6] = test system: NKCC1 ubiquitination; experiment: Immunoprecipitation (autoubiquitination assay) of NKCC1 in HT-29 cells; conditions: MG132 20 μM 2 h, then ALD 1 μM and/or GSK 650394 50 μM for 24 h
Experimental: Immunoprecipitation (autoubiquitination assay) and western blot analysis. An autoubiquitination assay was followed (Garg, et al., Effect of the Na—K-2Cl cotransporter NKCC1 on systemic blood pressure and smooth muscle tone. Am J Physiol Heart Circ Physiol 292: H2100-H2105, 2007). Cell extracts were prepared in a modified radioimmunoprecipitation assay 1 (RIPA) buffer, containing the following (in mM): 50 Tris·HCl at pH 7.4, 150 NaCl, 1 EDTA, and 1 dithiothreitol with 1% Nonidet P-40, 0.1% SDS; in a 1:200-diluted protease inhibitor cocktail (Sigma), containing the following (in mM): 1 PMSF, 10 NEM, and 0.1 iodoacetamide Immunoprecipitations were accomplished using a rabbit polyclonal anti-NKCC1 antibody (Cell Signaling). Antibody was bound to lysate with endogenous NKCC1, and then beads were added. Bound proteins were eluted in 1× SDS sample buffer, fractionated on an SDS-polyacrylamide gel, transferred onto a […] membrane (GE Healthcare, Piscataway, N.J.), and immunoblotted with anti-ubiquitin antibody visualized using enhanced chemiluminescence detection reagents (Pears, Shelton Conn.) according to the manufacturer's instructions.
Immunoblotting with anti-ubiquitin antibody was performed as described above.
ALD decreases the endogenous ubiquitination of NKCC1 and inhibition of SGK1 activation blocks this downregulation. […]

## CCN(CC)CCCC(C)Nc1ccnc2cc(Cl)ccc12 (centres unmarked) [CQ, chloroquine]
[1]
  lysosome pathway markers LC3II and LAMP-2 expression levels: significant upregulation of LC3II and LAMP-2 expression levels

## Cl.N [NH4Cl, Ammonium chloride]
[2]
  mRNA expression of Na,K-ATPase: enhances the mRNA expression of Na,K-ATPase

## CC(C)C[C@@H](C=O)NC(=O)[C@H](CC(C)C)NC(=O)[C@H](CC(C)C)NC(=O)OCc1ccccc1 [MG132] (Cbz-Leu-Leu-Leu-aldehyde)
[3]; ALD 1 μM, MG-132 20 μM, CQ 50 μM, 9 h
  induction of NKCC1 protein expression: induce NKCC1 protein expression similarly
[3]; MG132, ALD 1 μM, 3, 6, or 9 h
  NKCC1 protein expression: effect of ALD on NKCC1 expression was mimicked by MG132
[1]
  lysosome pathway markers LC3II and LAMP-2 expression levels: without increasing lysosome pathway markers
[4]
  bumetanide-sensitive Tl+ uptake fluorescence: identical enhancements similar to the ALD treatment alone

## COC(=O)[C@@H]1CC2=CC(=O)CC[C@]2(C)[C@@]23O[C@@H]2C[C@@]2(C)[C@@H](CC[C@@]24CCC(=O)O4)[C@H]13 [eplerenone]
[3]; simultaneous ALD (1 μM) and eplerenone (20 μM)
  effect on ALD upregulation of NKCC1 protein expression: prevented the ALD upregulation of NKCC1 protein expression

## O=C(O)c1ccc(-c2c[nH]c3ncc(-c4ccccc4)cc23)cc1C1CCCC1 [GSK 650394]
[3]; ALD 1 μM + GSK 650394 50 μM, 9 h
  NKCC1 protein expression with ALD in the presence of SGK1 inhibitor: did not increase protein expression of NKCC1
[5]; ALD 1 μM + GSK 650394 50 μM
  total protein expressions of SGK1 and Nedd4-2: showed no differences
[5]; ALD 1 μM, GSK 650394 50 μM
  phosphorylation of SGK1 and Nedd4-2: blocked phosphorylation of SGK1 and Nedd4-2
[6]
  endogenous ubiquitinated NKCC1: reduces the ability of ALD to suppress NKCC1 ubiquitination
